Laboratory results reported in PubChem BioAssay AID322 (DTP/NCI, 2004).
Where “and” joins values, the source holds several entries; their conditions need not be identical. Equal entries are not always repeated. Inconclusive results and toxic doses are left out.

System: CD2F1 mice, P388/ADR leukemia ip, median survival T/C
Experiment: NCI In Vivo Anticancer Drug Screen. Data for tumor model P388 Leukemia resistant to Adriamycin; NSC 123127, Developed at Scr 08 (intraperitoneal) in CD2F1 (CDF1) mice
Details: endpoint: median survival time, higher = longer survival
Description: The antitumor activity of compounds was measured in mice bearing transplantable tumors. Survival or tumor size were measured and the results are expressed as the measurement made in the treated group (T) divided by the measurement made in the vehicle treated control group (C). The tumor model used in this assay is P388 Leukemia resistant to Adriamycin; NSC 123127, Developed at Scr 08 (intraperitoneal) in CD2F1 (CDF1) mice

COc1cccc2c1C(=O)c1c(O)c3c(c(O)c1C2=O)C[C@@](O)(C(=O)CO)C[C@@H]3OC1CC(N)C(O)C(C)O1 (stereo partly drawn)
T/C (dose: 0.38 mg/kg/injection, schedule: Q01DX009 (ip), vehicle: saline): 118 % of control
T/C (dose: 0.43 mg/kg/injection, schedule: Q01DX009 (ip), vehicle: saline): 86 % of control
T/C (dose: 0.75 mg/kg/injection, schedule: Q01DX009 (ip), vehicle: saline): 109 % of control
T/C (dose: 0.97 mg/kg/injection, schedule: Q04DX002 (ip), vehicle: saline): 110 % of control
T/C (dose: 0.97 mg/kg/injection, schedule: Q04DX003 (ip), vehicle: saline): 98 % of control
T/C (dose: 0.97 mg/kg/injection, schedule: Q04DX003 (ip), vehicle: water): 100 % of control
T/C (dose: 1.2 mg/kg/injection, schedule: Q01DX009 (ip), vehicle: saline): 98 % of control
T/C (dose: 1.25 mg/kg/injection, schedule: Q01DX001 (ip), vehicle: saline): 118 % of control
T/C (dose: 1.5 mg/kg/injection, schedule: Q01DX009 (ip), vehicle: saline): 108 % of control
T/C (dose: 1.62 mg/kg/injection, schedule: Q04DX002 (ip), vehicle: saline): 111 % of control
T/C (dose: 1.62 mg/kg/injection, schedule: Q04DX003 (ip), vehicle: saline): 107 % of control
T/C (dose: 1.62 mg/kg/injection, schedule: Q04DX003 (ip), vehicle: water): 100 % of control
T/C (dose: 2.0 mg/kg/injection, schedule: Q01DX009 (ip), vehicle: saline): 86 % of control
T/C (dose: 2.16 mg/kg/injection, schedule: Q04DX003 (ip), vehicle: saline): 100 % of control
T/C (dose: 2.5 mg/kg/injection, schedule: Q01DX001 (ip), vehicle: water): 124 % of control
T/C (dose: 2.7 mg/kg/injection, schedule: Q04DX002 (ip), vehicle: saline): 117 % of control
T/C (dose: 2.7 mg/kg/injection, schedule: Q04DX003 (ip), vehicle: saline): 100 % of control
T/C (dose: 2.7 mg/kg/injection, schedule: Q04DX003 (ip), vehicle: water): 101 % of control
T/C (dose: 3.33 mg/kg/injection, schedule: Q01DX009 (ip), vehicle: saline): 90 % of control
T/C (dose: 3.6 mg/kg/injection, schedule: Q04DX003 (ip), vehicle: saline): 102 % of control
T/C (dose: 4.4 mg/kg/injection, schedule: Q01DX001 (ip), vehicle: saline): 120 % of control
T/C (dose: 4.5 mg/kg/injection, schedule: Q04DX002 (ip), vehicle: saline): 120 % of control
T/C (dose: 4.5 mg/kg/injection, schedule: Q04DX003 (ip), vehicle: saline): 102 % of control
T/C (dose: 4.5 mg/kg/injection, schedule: Q04DX003 (ip), vehicle: water): 94 % of control
T/C (dose: 4.5 mg/kg/injection, schedule: Q04DX003 (iv), vehicle: saline): 109 % of control
T/C (dose: 5.0 mg/kg/injection, schedule: Q01DX001 (ip), vehicle: water): 109 % of control
T/C (dose: 6.0 mg/kg/injection, schedule: Q04DX003 (ip), vehicle: saline): 106 % of control
T/C (dose: 6.2 mg/kg/injection, schedule: Q01DX001 (ip), vehicle: saline): 116 % of control
T/C (dose: 6.7 mg/kg/injection, schedule: Q01DX005 (ip), vehicle: saline): 152 % of control
T/C (dose: 6.7 mg/kg/injection, schedule: Q04DX003 (iv), vehicle: saline): 102 % of control
T/C (dose: 7.5 mg/kg/injection, schedule: Q04DX002 (ip), vehicle: saline): 121 % of control
T/C (dose: 7.5 mg/kg/injection, schedule: Q04DX003 (ip), vehicle: water): 92 % of control
T/C (dose: 10.0 mg/kg/injection, schedule: Q01DX001 (ip), vehicle: water): 107 % of control
T/C (dose: 10.0 mg/kg/injection, schedule: Q04DX003 (ip), vehicle: saline): 87 % of control
T/C (dose: 10.0 mg/kg/injection, schedule: Q04DX003 (iv), vehicle: saline): 90 % of control
T/C (dose: 12.5 mg/kg/injection, schedule: Q01DX001 (ip), vehicle: saline): 109 % of control and 119 % of control
T/C (dose: 15.0 mg/kg/injection, schedule: Q01DX005 (ip), vehicle: saline): 107 % of control
T/C (dose: 15.0 mg/kg/injection, schedule: Q04DX003 (iv), vehicle: saline): 88 % of control
T/C (dose: 16.0 mg/kg/injection, schedule: Q04DX003 (ip), vehicle: saline): 90 % of control
T/C (dose: 20.0 mg/kg/injection, schedule: Q01DX001 (ip), vehicle: water): 88 % of control

CC1=C(C(N)=O)C(c2ccccc2)NC(=S)N1 (stereo not drawn)
T/C (dose: 3.12 mg/kg/injection, schedule: Q01DX005 (ip), vehicle: Klucel (hydroxypropylcellulose) (HPC)): 99 % of control
T/C (dose: 6.25 mg/kg/injection, schedule: Q01DX005 (ip), vehicle: Klucel (hydroxypropylcellulose) (HPC)): 101 % of control
T/C (dose: 12.5 mg/kg/injection, schedule: Q01DX005 (ip), vehicle: Klucel (hydroxypropylcellulose) (HPC)): 98 % of control
T/C (dose: 25.0 mg/kg/injection, schedule: Q01DX005 (ip), vehicle: Klucel (hydroxypropylcellulose) (HPC)): 96 % of control and 107 % of control
T/C (dose: 50.0 mg/kg/injection, schedule: Q01DX005 (ip), vehicle: Klucel (hydroxypropylcellulose) (HPC)): 96 % of control

CC(=O)N(C)c1ccc(Nc2cc(C)[nH]c3ccc4ncnc4c23)cc1
T/C (dose: 30.0 mg/kg/injection, schedule: Q01DX005 (ip), vehicle: saline): 98 % of control
T/C (dose: 44.0 mg/kg/injection, schedule: Q01DX005 (ip), vehicle: saline): 114 % of control
T/C (dose: 100.0 mg/kg/injection, schedule: Q01DX005 (ip), vehicle: saline): 122 % of control

COc1cccc2c1C(=O)c1c(O)c3c(c(O)c1C2=O)CC(O)(C(=O)CO)CC3OC1CC(N)C(I)C(C)O1 (stereo not drawn)
T/C (dose: 2.2 mg/kg/injection, schedule: Q01DX001 (ip), vehicle: saline): 98 % of control
T/C (dose: 3.3 mg/kg/injection, schedule: Q01DX001 (ip), vehicle: saline): 99 % of control
T/C (dose: 5.0 mg/kg/injection, schedule: Q01DX001 (ip), vehicle: saline): 108 % of control and 117 % of control
T/C (dose: 7.5 mg/kg/injection, schedule: Q01DX001 (ip), vehicle: saline): 118 % of control
T/C (dose: 25.2 mg/kg/injection, schedule: Q01DX001 (ip), vehicle: saline): 150 % of control
